One data set has as its system Pseudomonas aeruginosa. Description: Antimicrobial activity against Pseudomonas aeruginosa ATCC 27853 after 24 hrs by M7-A7 method. Type of data set: functional. As to conditions: ATCC 27853, 24 h.
Data set [1] can be described thus: Metabolic stability in 0.1 M NH4HCO3 buffer at pH 8.16 assessed as trypsin (unknown origin)-mediated compound degradation after 2 to 12 hrs by RP-HPLC method. Type of data set: ADME. As to conditions: human.
For the next data set, the system named is Acinetobacter baumannii. Briefly: Antimicrobial activity against Acinetobacter baumannii […] after 24 hrs by M7-A7 method. Type of data set: functional.
In the next data set the test system is Streptococcus pneumoniae. Description: Antimicrobial activity against multidrug resistant Streptococcus pneumoniae ATCC 700677 after 24 hrs by M7-A7 method. Type of data set: functional. Particulars: ATCC 700677, 24 h.
The test system of a further data set is Escherichia coli. Description: Antimicrobial activity against Escherichia coli ATCC 25922 after 24 hrs by M7-A7 method. Particulars: ATCC 25922, 24 h. Type of data set: functional.
In data set [2] the test system is Staphylococcus aureus. Briefly: Antimicrobial activity against glycopeptide-intermediate Staphylococcus aureus NRS17 after 24 hrs by M7-A7 method. The class given is functional. Particulars: NRS17, 24 h.
In data set [3] the test system is Staphylococcus aureus. Description: Antimicrobial activity against vancomycin-resistant Staphylococcus aureus NARSA VRS10 after 24 hrs by M7-A7 method. The class given is functional. As to conditions: NARSA VRS10, 24 h.
For data set [4], the system named is Staphylococcus aureus. Briefly: Antimicrobial activity against clinical isolates of multi-resistant/methicillin-resistant Staphylococcus aureus after 24 hrs by M7-A7 method. The class given is functional.
The test system of data set [5] is Staphylococcus aureus. Briefly: Antimicrobial activity against glycopeptide-intermediate Staphylococcus aureus NRS1 after 24 hrs by M7-A7 method. The class given is functional. As to conditions: NRS1, 24 h.
In data set [6] the test system is Staphylococcus aureus. Briefly: Antimicrobial activity against methicillin-susceptible Staphylococcus aureus ATCC 25923 assessed as membrane burst at 16 times MIC after 3 hrs by transmission electron microscopic analysis. The class given is functional, organism-based.
Data set [7] deals with Klebsiella pneumoniae. Description: Antimicrobial activity against multidrug resistant Klebsiella pneumoniae ATCC 700603 after 24 hrs by M7-A7 method. Particulars: Klebsiella pneumoniae, 700603, 24 h. The class given is functional.
In data set [8] the test system is Klebsiella pneumoniae. Briefly: Antimicrobial activity against Klebsiella pneumoniae ATCC 13883 after 24 hrs by M7-A7 method. Type of data set: functional. As to conditions: ATCC 13883, 24 h.
The test system of data set [9] is Staphylococcus aureus. Description: Antimicrobial activity against methicillin-resistant Staphylococcus aureus ATCC 43300 after 24 hrs by M7-A7 method. Type of data set: functional. Particulars: ATCC 43300, 24 h.
In data set [10] the test system is Staphylococcus aureus. Briefly: Antimicrobial activity against clinical isolates of methicillin-resistant Staphylococcus aureus after 24 hrs by M7-A7 method. The class given is functional.
In the next data set the test system is Enterococcus faecalis. Briefly: Antimicrobial activity against clinical isolates of high level vancomycin-resistant Enterococcus faecalis after 24 hrs by M7-A7 method. The class given is functional.
For data set [11], the system named is Staphylococcus aureus. Briefly: Antimicrobial activity against vancomycin-resistant Staphylococcus aureus NARSA VRS4 after 24 hrs by M7-A7 method. Type of data set: functional. As to conditions: NARSA VRS4, 24 h.
Data set [12] has as its system Staphylococcus aureus. Description: Antimicrobial activity against vancomycin-resistant Staphylococcus aureus NARSA VRS1 after 24 hrs by M7-A7 method. Type of data set: functional. As to conditions: NARSA VRS1, 24 h.
The test system of data set [13] is Klebsiella pneumoniae. Description: Antimicrobial activity against NDM-1 positive Klebsiella pneumoniae BAA-2146 after 24 hrs by M7-A7 method. The class given is functional. As to conditions: ATCC BAA-2146, 24 h.
The next data set has as its system Enterococcus faecium. Briefly: Antimicrobial activity against multidrug resistant and high level vancomycin resistant Enterococcus faecium ATCC 51559 after 24 hrs by M7-A7 method. As to conditions: ATCC 51559, 24 h. The class given is functional.

The structures appear in SMILES notation. ≈ marks a conversion by molar mass, not a printed value. Calls of active or inactive are those of the source. Non-standard residues stand in square brackets, D forms with d. Residues, ends and D or L forms follow the SMILES beside them. ξ: configuration not given here. ξGly(decyl) = CCCCCCCCCCC(N)C(=O)O

A word on the MIC: it is the smallest concentration in the dilution series that meets the test's criterion for growth inhibition. Lower therefore signals a more susceptible organism. On to `CCCCCCCCCCC(NC(=O)C(CCCCCCCCCC)NC(=O)C(CCCCN)NC(=O)C(CCCCN)NC(C)=O)C(=O)NC(CCCCNC(C)=O)C(=O)NCC(N)=O` (centres undefined) (Ac-KK[ξGly(decyl)][ξGly(decyl)]K(Ac)G-NH2; configuration not given here), for which the MIC was found to be 7.5 µM (≈ 7.03 µg/mL) with Pseudomonas aeruginosa; 7.5 µM (≈ 7.03 µg/mL) in the data set with Acinetobacter baumannii; 3.8 µM (≈ 3.56 µg/mL) in the data set with Streptococcus pneumoniae; 15 µM (≈ 14.1 µg/mL) in the data set with Escherichia coli; 2.8 µM (≈ 2.62 µg/mL) in the data set with Staphylococcus aureus [2]; 2.8 µM (≈ 2.62 µg/mL) in the data set on Staphylococcus aureus [3]. The MIC was 3.8 µM (≈ 3.56 µg/mL) in the data set with Staphylococcus aureus [4]; 1.9 µM (≈ 1.78 µg/mL) in the data set with Staphylococcus aureus [5]; greater than 15 µM in the data set with Klebsiella pneumoniae [7]; 15 µM (≈ 14.1 µg/mL) with Klebsiella pneumoniae [8]; 1.9 µM (≈ 1.78 µg/mL) against Staphylococcus aureus [9]; 11.3 µM (≈ 10.6 µg/mL) against Staphylococcus aureus [10]. Also, the minimal inhibitory concentration (MIC) was 1.9 µM (≈ 1.78 µg/mL) in the data set with Enterococcus faecalis; 2.8 µM (≈ 2.62 µg/mL) against Staphylococcus aureus [11]; 1.9 µM (≈ 1.78 µg/mL) against Staphylococcus aureus [12]; greater than 15 µM against Klebsiella pneumoniae [13]; 2.8 µM (≈ 2.62 µg/mL) in the data set with Enterococcus faecium. In data set [1], the Stability entry is listed as “Stable”. In the data set with Staphylococcus aureus [6], the outcome was Active.

These data come from ChEMBL document CHEMBL3779783, “Short cationic lipopeptides as effective antibacterial agents: Design, physicochemical properties and biological evaluation” (Bioorg Med Chem, 2016).
